# Publication PMC11995724, “Antibiotic target discovery by integrated phenotypic and activity-based profiling of electrophilic fragments” (Cell chemical biology, 2025)
# Counter-ions that a name gives are not always drawn.
# Assay: in vitro
# Conditions: human, hek293t cells
smiles,measurement,value
"CC(Cl)C(=O)Nc1ccccc1C#N (stereo not drawn) [6-A11, 2-chloro-N-(2-cyanophenyl)propanamide]","viability at 48 h, 25 µM",97.2%
"Cc1ccc(C(=O)c2c(NC(=O)CCl)sc3c2CCCC3)cc1 [6-A12, 2-chloro-N-[3-(4-methylbenzoyl)-4,5,6,7-tetrahydro-1-benzothiophen-2-yl]acetamide]","viability at 48 h, 25 µM",14%
"O=C(CCl)Nc1ccc2c(c1)oc1ccccc12 [6-A13, 2-chloro-N-{8-oxatricyclo[7.4.0.0,2,7]trideca-1(9),2(7),3,5,10,12-hexaen-5-yl}acetamide]","viability at 48 h, 25 µM",-0.0548%
"O=C(CCl)NCCOc1ccc2ccccc2c1 [6-A14, 2-chloro-N-[2-(naphthalen-2-yloxy)ethyl]acetamide]","viability at 48 h, 25 µM",0.0621%
"CC(Cl)C(=O)Nc1cc(Cl)ccc1Cl (stereo not drawn) [6-A15, 2-chloro-N-(2,5-dichlorophenyl)propanamide]","viability at 48 h, 25 µM",86.9%
"COc1ccc(Cl)cc1CNC(=O)CCl [6-A16, 2-chloro-N-[(5-chloro-2-methoxyphenyl)methyl]acetamide]","viability at 48 h, 25 µM",0.564%
"N#CCCN(C(=O)CCl)c1cccc(Cl)c1 [6-A17, 2-chloro-N-(3-chlorophenyl)-N-(2-cyanoethyl)acetamide]","viability at 48 h, 25 µM",-0.154%
"CC(NC(=O)CCl)c1ccc2ncsc2c1 (stereo not drawn) [6-A18, N-[1-(1,3-benzothiazol-6-yl)ethyl]-2-chloroacetamide]","viability at 48 h, 25 µM",2.3%
"CN(CC1CCCCC1)C(=O)C(C)(C)NC(=O)CCl [6-A19, 2-(2-chloroacetamido)-N-(cyclohexylmethyl)-N,2-dimethylpropanamide]","viability at 48 h, 25 µM",61.9%
"CCC(C)n1nccc1NC(=O)C(C)Cl (stereo not drawn) [6-A20, N-[1-(butan-2-yl)-1H-pyrazol-5-yl]-2-chloropropanamide]","viability at 48 h, 25 µM",84.8%
"CC(Cl)C(=O)Nc1sc2c(c1C(N)=O)CCC2 (stereo not drawn) [6-A21, 2-(2-chloropropanamido)-4H,5H,6H-cyclopenta[b]thiophene-3-carboxamide]","viability at 48 h, 25 µM",119%
"O=C(CCl)NCc1ccccc1[N+](=O)[O-] [6-A22, 2-chloro-N-[(2-nitrophenyl)methyl]acetamide]","viability at 48 h, 25 µM",0.388%
"O=C(CCl)Nc1ncc[nH]1 [6-B03, 2-chloro-N-(1H-imidazol-2-yl)acetamide hydrochloride]","viability at 48 h, 25 µM",37.4%
"O=C(CCl)NCc1coc(Cl)n1 [6-B04, 2-chloro-N-[(2-chloro-1,3-oxazol-4-yl)methyl]acetamide]","viability at 48 h, 25 µM",106%
"CC(Cl)C(=O)NC1COCc2ccccc21 (stereo not drawn) [6-B05, 2-chloro-N-(3,4-dihydro-1H-2-benzopyran-4-yl)propanamide]","viability at 48 h, 25 µM",106%
"CC(Cl)C(=O)Nc1ccc(S(N)(=O)=O)cc1 (stereo not drawn) [6-B06, 2-chloro-N-(4-sulfamoylphenyl)propanamide]","viability at 48 h, 25 µM",101%
"CC(Cl)C(=O)NCc1cc2sccc2s1 (stereo not drawn) [6-B07, 2-chloro-N-({thieno[3,2-b]thiophen-2-yl}methyl)propanamide]","viability at 48 h, 25 µM",109%
"COc1ccc(NC(=O)C(C)Cl)c([N+](=O)[O-])c1 (stereo not drawn) [6-B08, 2-chloro-N-(4-methoxy-2-nitrophenyl)propanamide]","viability at 48 h, 25 µM",90.1%
"Cn1ccc(-c2nc(CNC(=O)CCl)cs2)n1 [6-B09, 2-chloro-N-{[2-(1-methyl-1H-pyrazol-3-yl)-1,3-thiazol-4-yl]methyl}acetamide hydrochloride]","viability at 48 h, 25 µM",1.33%
"CC(C)NS(=O)(=O)c1ccc(NC(=O)C(C)Cl)cc1 (stereo not drawn) [6-B10, 2-chloro-N-{4-[(propan-2-yl)sulfamoyl]phenyl}propanamide]","viability at 48 h, 25 µM",98.5%
"CC(Cl)C(=O)N1CCN(C(=O)CN2C(=O)CCC2=O)CC1 (stereo not drawn) [6-B11, 1-{2-[4-(2-chloropropanoyl)piperazin-1-yl]-2-oxoethyl}pyrrolidine-2,5-dione]","viability at 48 h, 25 µM",106%
"CC(Cl)C(=O)N1CCN(S(=O)(=O)c2ccccc2)CC1 (stereo not drawn) [6-B12, 1-[4-(benzenesulfonyl)piperazin-1-yl]-2-chloropropan-1-one]","viability at 48 h, 25 µM",100%
"COCC(NC(=O)C(C)Cl)c1ccccn1 (stereo not drawn) [6-B13, 2-chloro-N-[2-methoxy-1-(pyridin-2-yl)ethyl]propanamide]","viability at 48 h, 25 µM",106%
"CC(Cl)C(=O)NC1(c2noc(C(F)F)n2)CCC1 (stereo not drawn) [6-B15, 2-chloro-N-{1-[5-(difluoromethyl)-1,2,4-oxadiazol-3-yl]cyclobutyl}propanamide]","viability at 48 h, 25 µM",91.8%
"CC(Cl)C(=O)NC(C)c1ccn(C)n1 (stereo not drawn) [6-B16, 2-chloro-N-[1-(1-methyl-1H-pyrazol-3-yl)ethyl]propanamide]","viability at 48 h, 25 µM",103%
"COc1cccc([C@H]2C[C@H](N(C)C(=O)C(C)Cl)C2)c1 (stereo partly drawn) [6-B17, 2-chloro-N-methyl-N-[(1r,3r)-3-(3-methoxyphenyl)cyclobutyl]propanamide]","viability at 48 h, 25 µM",79.7%
"CC(Cl)C(=O)N(C)C1CCN(C(=O)c2ccccc2)CC1 (stereo not drawn) [6-B18, N-(1-benzoylpiperidin-4-yl)-2-chloro-N-methylpropanamide]","viability at 48 h, 25 µM",95.9%
"CC(Cl)C(=O)N1CCCc2c1ccc1c2ncn1C (stereo not drawn) [6-B19, 2-chloro-1-{3-methyl-3H,6H,7H,8H,9H-imidazo[4,5-f]quinolin-6-yl}propan-1-one]","viability at 48 h, 25 µM",90.9%
"CC(Cl)C(=O)NCC1(n2ccnn2)CC1 (stereo not drawn) [6-B20, 2-chloro-N-{[1-(1H-1,2,3-triazol-1-yl)cyclopropyl]methyl}propanamide]","viability at 48 h, 25 µM",104%
"CC(Cl)C(=O)N1CCc2oc(-c3ccccc3)cc2C1 (stereo not drawn) [6-B21, 2-chloro-1-{2-phenyl-4H,5H,6H,7H-furo[3,2-c]pyridin-5-yl}propan-1-one]","viability at 48 h, 25 µM",67.2%
"CC(Cl)C(=O)N[C@H]1C[C@H](C)S(=O)(=O)c2sccc21 (stereo partly drawn) [6-B22, 2-chloro-N-[(2S,4S)-2-methyl-1,1-dioxo-2H,3H,4H-1lambda6-thieno[2,3-b]thiopyran-4-yl]propanamide]","viability at 48 h, 25 µM",92.4%
"CN(CCOc1ccccc1F)C(=O)CCl [6-C03, 2-chloro-N-[2-(2-fluorophenoxy)ethyl]-N-methylacetamide]","viability at 48 h, 25 µM",1.83%
"CC(C)(CNC(=O)CCl)CC1CCOCC1 [6-C04, 2-chloro-N-[2,2-dimethyl-3-(oxan-4-yl)propyl]acetamide]","viability at 48 h, 25 µM",130%
"CC1(C)CN(C(=O)CCl)CCO1 [6-C05, 2-chloro-1-(2,2-dimethylmorpholin-4-yl)ethan-1-one]","viability at 48 h, 25 µM",2.63%
"Cc1ccccc1CC(C)NC(=O)CCl (stereo not drawn) [6-C06, 2-chloro-N-[1-(2-methylphenyl)propan-2-yl]acetamide]","viability at 48 h, 25 µM",75.4%
"Cc1nn(C)c(C)c1NC(=O)C(C)Cl (stereo not drawn) [6-C07, 2-chloro-N-(1,3,5-trimethyl-1H-pyrazol-4-yl)propanamide]","viability at 48 h, 25 µM",116%
"O=C(CCl)NCC(c1ccccc1)c1c[nH]c2ccccc12 (stereo not drawn) [6-C08, 2-chloro-N-[2-(1H-indol-3-yl)-2-phenylethyl]acetamide]","viability at 48 h, 25 µM",0.717%
"COc1ccccc1CN(C)C(=O)CCl [6-C09, 2-chloro-N-[(2-methoxyphenyl)methyl]-N-methylacetamide]","viability at 48 h, 25 µM",1.06%
"CC1CCCCC1NC(=O)CCl (stereo not drawn) [6-C10, 2-chloro-N-(2-methylcyclohexyl)acetamide]","viability at 48 h, 25 µM",93.3%
"N#CCSc1ccccc1NC(=O)CCl [6-C11, 2-chloro-N-{2-[(cyanomethyl)sulfanyl]phenyl}acetamide]","viability at 48 h, 25 µM",2.08%
"CC(Cl)C(=O)N(C)CCOc1ccc(Cl)cc1 (stereo not drawn) [6-C12, 2-chloro-N-[2-(4-chlorophenoxy)ethyl]-N-methylpropanamide]","viability at 48 h, 25 µM",81.3%
"O=C(CCl)NC(Cc1ccccc1)C(=O)O (stereo not drawn) [6-C13, 2-(2-chloroacetamido)-3-phenylpropanoic acid]","viability at 48 h, 25 µM",97.4%
"O=C(CCl)NCc1ccccc1OC1CCCC1 [6-C14, 2-chloro-N-{[2-(cyclopentyloxy)phenyl]methyl}acetamide]","viability at 48 h, 25 µM",2.1%
"COc1cc(Cl)c(C)cc1NC(=O)C(C)Cl (stereo not drawn) [6-C15, 2-chloro-N-(4-chloro-2-methoxy-5-methylphenyl)propanamide]","viability at 48 h, 25 µM",102%
"CN(C)C(=O)c1ccc(CNC(=O)CCl)cc1 [6-C16, 4-[(2-chloroacetamido)methyl]-N,N-dimethylbenzamide]","viability at 48 h, 25 µM",67.8%
"CC(Cl)C(=O)Nc1cccnc1Cl (stereo not drawn) [6-C17, 2-chloro-N-(2-chloropyridin-3-yl)propanamide]","viability at 48 h, 25 µM",106%
"O=C(CCl)Nc1ccc(Oc2cccc(Cl)c2)cc1 [6-C18, 2-chloro-N-[4-(3-chlorophenoxy)phenyl]acetamide]","viability at 48 h, 25 µM",0.765%
"O=C(CCl)Nc1nccc(Cl)n1 [6-C19, 2-chloro-N-(4-chloropyrimidin-2-yl)acetamide]","viability at 48 h, 25 µM",100%
"CCN(CC)S(=O)(=O)c1ccc(Cl)c(NC(=O)C(C)Cl)c1 (stereo not drawn) [6-C20, 2-chloro-N-[2-chloro-5-(diethylsulfamoyl)phenyl]propanamide]","viability at 48 h, 25 µM",79.6%
"O=C(CCl)NCC(F)(F)c1cccnc1 [6-C21, 2-chloro-N-[2,2-difluoro-2-(pyridin-3-yl)ethyl]acetamide]","viability at 48 h, 25 µM",104%
"O=C(CCl)NC(C1CC1)C1CC1 [6-C22, 2-chloro-N-(dicyclopropylmethyl)acetamide]","viability at 48 h, 25 µM",66.4%
"O=C(CCl)Nc1nc2c(s1)CCc1ccccc1-2 [6-D03, 2-chloro-N-{4H,5H-naphtho[1,2-d][1,3]thiazol-2-yl}acetamide]","viability at 48 h, 25 µM",0.611%
"Cc1nc2ccccc2n(CCCN(C)C(=O)CCl)c1=O [6-D04, 2-chloro-N-methyl-N-[3-(3-methyl-2-oxo-1,2-dihydroquinoxalin-1-yl)propyl]acetamide]","viability at 48 h, 25 µM",1.73%
"CC(Cl)C(=O)N(C)C(C)c1ccccc1N1CCCS1(=O)=O (stereo not drawn) [6-D05, 2-chloro-N-{1-[2-(1,1-dioxo-1lambda6,2-thiazolidin-2-yl)phenyl]ethyl}-N-methylpropanamide]","viability at 48 h, 25 µM",104%
"CC(Cl)C(=O)Nc1ccc([N+](=O)[O-])cc1C(F)(F)F (stereo not drawn) [6-D06, 2-chloro-N-[4-nitro-2-(trifluoromethyl)phenyl]propanamide]","viability at 48 h, 25 µM",98.9%
"CC(Cl)C(=O)N1CCNC(=O)C1c1c(F)cccc1Cl (stereo not drawn) [6-D07, 3-(2-chloro-6-fluorophenyl)-4-(2-chloropropanoyl)piperazin-2-one]","viability at 48 h, 25 µM",107%
"Cn1cc(CN(C(=O)CCl)c2ccc(F)cc2)cn1 [6-D08, 2-chloro-N-(4-fluorophenyl)-N-[(1-methyl-1H-pyrazol-4-yl)methyl]acetamide]","viability at 48 h, 25 µM",2.1%
